The target in one experiment is T1, human α1D-adrenoceptors (Homo sapiens, UniProt P25100).
T1 sequence (P25100 1-572): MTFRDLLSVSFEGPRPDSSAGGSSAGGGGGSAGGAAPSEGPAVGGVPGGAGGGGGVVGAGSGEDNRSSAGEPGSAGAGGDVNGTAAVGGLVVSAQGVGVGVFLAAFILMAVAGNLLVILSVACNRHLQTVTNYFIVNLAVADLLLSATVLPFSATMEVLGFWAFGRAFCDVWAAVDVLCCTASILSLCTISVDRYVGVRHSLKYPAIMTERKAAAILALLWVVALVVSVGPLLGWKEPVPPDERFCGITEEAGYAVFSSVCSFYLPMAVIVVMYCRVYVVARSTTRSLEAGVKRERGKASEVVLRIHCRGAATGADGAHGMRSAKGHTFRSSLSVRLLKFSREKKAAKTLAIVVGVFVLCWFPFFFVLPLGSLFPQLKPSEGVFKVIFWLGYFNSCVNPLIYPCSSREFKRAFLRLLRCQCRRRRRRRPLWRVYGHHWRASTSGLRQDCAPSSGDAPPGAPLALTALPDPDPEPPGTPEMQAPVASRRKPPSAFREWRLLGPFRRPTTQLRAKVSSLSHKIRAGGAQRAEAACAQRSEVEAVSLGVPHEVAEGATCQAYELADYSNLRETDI
The experiment is described as follows: Radioligand-receptor binding assay, human recombinant α1D-adrenoceptor, [3H]prazosin. Here is the method:
(§1) Chinese hamster ovary (CHO) cells which had been stably transfected with human α1A, α1B, or α1D-adrenoceptors (Keffel et al., Biochem. Biophys. Res. Commun., 2000, 272, 906–11) were cultured in an atmosphere of 5% CO2/95% air at 37° C. in F-12 HAM medium supplemented with 10% heat-inactivated fetal calf serum, 1 mM glutamine, 100 U/ml penicillin and 0.1 mg/ml streptomycin. Selection pressure was maintained by regular addition of geneticin to the culture medium.
(§2) Competitive radioligand binding to the cloned subtypes of […] was performed using [^3H]prazosin as the radioligand as described by Michel et al, Br. J. Pharmacol., 98, 883–889 (1989) with minor modifications. Experiments were performed in binding buffer consisting of 50 mM Tris, 10 mM MgCl2 and 0.5 mM EDTA at pH 7.5 in a total assay volume of 1000 μl. The protein content typically was 40–60 μg/assay. The mixtures were incubated at 25° C. for 45 minutes. Incubations were terminated by rapid vacuum filtration over GF/C filters followed by two washes of the filters each with 10 ml ice-cold incubation buffer. Non-specific binding was defined as binding in the presence of 10 μM phentolamine.
(§3) The IC50 & Kd were estimated by using the non-linear curve fitting program using G Pad Prism software. The value of inhibition constant Ki was calculated from competitive binding studies by using Cheng & Prusoff equation [Cheng & Prusoff, Biochem. Pharmacol., 22, 3099–3108 (1973)], Ki=IC50/(1+L/Kd), where L is the concentration of [^3H] prazosin used in the particular experiment. Kd of [^3H] prazosin was determined from saturation binding studies. The values were tabulated as mean±SEM of pKi values, where pKi is the −log of Ki value.

The next experiment addresses T2, 5-HT1A receptors (Homo sapiens, UniProt P08908).
T2 sequence (P08908 1-422): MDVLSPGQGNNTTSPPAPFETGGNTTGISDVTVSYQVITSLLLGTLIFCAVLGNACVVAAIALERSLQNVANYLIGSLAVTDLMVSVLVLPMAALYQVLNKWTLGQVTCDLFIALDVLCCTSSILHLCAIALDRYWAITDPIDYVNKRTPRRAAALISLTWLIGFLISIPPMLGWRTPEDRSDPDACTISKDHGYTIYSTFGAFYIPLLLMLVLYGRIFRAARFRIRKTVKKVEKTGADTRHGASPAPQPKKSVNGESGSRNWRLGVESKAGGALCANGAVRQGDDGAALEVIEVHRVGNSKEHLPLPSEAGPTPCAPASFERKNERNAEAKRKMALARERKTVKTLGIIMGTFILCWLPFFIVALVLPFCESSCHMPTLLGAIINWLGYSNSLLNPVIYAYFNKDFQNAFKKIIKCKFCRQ
The experiment is described as follows: biochemical. Format: binding. Here is the method:
Receptor binding assays were performed using human recombinant 5HT1A receptors. […] Non-specific binding was defined by 10 μM Metergoline.

The next experiment addresses T3, human α1B-adrenoceptors (Homo sapiens, UniProt P35368).
T3 sequence (P35368 1-520): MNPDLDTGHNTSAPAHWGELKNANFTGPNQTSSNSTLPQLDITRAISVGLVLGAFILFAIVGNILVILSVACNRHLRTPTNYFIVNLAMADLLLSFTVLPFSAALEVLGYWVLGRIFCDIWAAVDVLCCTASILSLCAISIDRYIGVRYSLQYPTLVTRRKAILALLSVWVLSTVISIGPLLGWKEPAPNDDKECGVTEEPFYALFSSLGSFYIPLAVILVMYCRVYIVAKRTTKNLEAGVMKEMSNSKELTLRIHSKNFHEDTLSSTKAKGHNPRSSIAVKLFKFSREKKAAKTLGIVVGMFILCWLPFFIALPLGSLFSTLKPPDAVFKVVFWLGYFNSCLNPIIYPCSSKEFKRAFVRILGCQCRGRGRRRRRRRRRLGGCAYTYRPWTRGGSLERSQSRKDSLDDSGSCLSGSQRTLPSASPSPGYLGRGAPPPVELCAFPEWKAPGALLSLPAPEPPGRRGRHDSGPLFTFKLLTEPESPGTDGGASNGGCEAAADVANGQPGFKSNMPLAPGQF
The experiment is described as follows: Radioligand-receptor binding assay, human recombinant α1B-adrenoceptor, [3H]prazosin. Here is the method:
as §1, §2, §3

SMILES strings stand for the structures. Read-outs that look alike come from different tables or passages of the source.

As to `CCOc1ccccc1OCCNC(C)Cc1ccc(OC)c(S(N)(=O)=O)c1` (single isomer, unassigned; (-)) [Tamsulosin, (−) isomer of 5-[2-[2-(2-ethoxyphenoxy)ethylamino]-2-methylethyl]-2-methoxybenzene sulfonamide, reference compound], the Ki on human α1D-adrenoceptors (human recombinant receptors in CHO cells, mean ± SEM, read-out: pKi α1D (converted)) was 0.0813 nM; on 5-HT1A receptors (human recombinant receptors, read-out: PKi 5HT1A (converted)), 0.794 nM; at human α1B-adrenoceptors (human recombinant receptors in CHO cells, mean ± SEM, read-out: pKi α1B (converted)), 0.692 nM.

On to `CCOc1ccccc1OCCN[C@H](C)Cc1ccc(O)c(S(N)(=O)=O)c1` [Formula I, R (−)-5-[2-[[2-(2-ethoxyphenoxy)ethyl]amino]propyl]-2-hydroxybenzenesulfonamide], for which the Ki on human α1D-adrenoceptors was 0.107 nM; on 5-HT1A receptors it was 9.77 nM; on human α1B-adrenoceptors, 0.324 nM. Also, on 5-HT1A receptors (Tables I and III), the “fold greater α1A versus 5HT1A selectivity as compared to tamsulosin” value was found to be 27 fold. Besides, the “fold lower affinity for 5HT1A receptors than tamsulosin” value at 5-HT1A receptors (human recombinant receptors) is given as 12.6 fold.

These data come from patent US7084301B2 (Ranbaxy Laboratories Limited, priority 2003, dated 2006).
